From ChEMBL document CHEMBL5728816, “Thienopyridine inhibitors of RIPK2” (2021)

Biological target: Receptor-interacting serine/threonine-protein kinase 2 (Homo sapiens, UniProt O43353)
Experiment: TR-FRET Assay: All data was collected using a standard TR-FRET screening assay: LanthaScreen Tracer 199 at 50 nM, Eu-anti-His Antibody at 2 nM, 5 nM RIPK2 enzyme, and 1× Kinase Reaction Buffer. There was a 1 hour incubation prior to read. TR-FRET signal of the interaction (340Ex/665Em/615Em) was read at room temperature with standard setting. Background was subtracted of wells containing no enzyme. Percent inhibition was based on uninhibited controls log (inhibitor) vs. response. Variable slope equation was used with no constraints: Log Y=Bottom+(Top−Bottom)/(1+10^((Log IC50−X)*Hill Slope)).Analytical Instrumentation:NMR: Bruker UltraShield™-300 or Bruker Ascend™-400 spectrometers.LCMS: Shimadzu LCMS-2020 or Agilent technologies 1260 Infinity-6120 Quadrupole LC/MS.Purification:TLC plates: Thin-layer chromatography with E. Merck silica gel 60 F254 pre-coated plates (0.25 mm).Flash chromatography: Agela Technologies CHEETAH-MP200 CH16200 2T-A0099 or Biotage Isolera ISO-PSV ISPS 1832112.

Chain of Receptor-interacting serine/threonine-protein kinase 2 (O43353 whole entry): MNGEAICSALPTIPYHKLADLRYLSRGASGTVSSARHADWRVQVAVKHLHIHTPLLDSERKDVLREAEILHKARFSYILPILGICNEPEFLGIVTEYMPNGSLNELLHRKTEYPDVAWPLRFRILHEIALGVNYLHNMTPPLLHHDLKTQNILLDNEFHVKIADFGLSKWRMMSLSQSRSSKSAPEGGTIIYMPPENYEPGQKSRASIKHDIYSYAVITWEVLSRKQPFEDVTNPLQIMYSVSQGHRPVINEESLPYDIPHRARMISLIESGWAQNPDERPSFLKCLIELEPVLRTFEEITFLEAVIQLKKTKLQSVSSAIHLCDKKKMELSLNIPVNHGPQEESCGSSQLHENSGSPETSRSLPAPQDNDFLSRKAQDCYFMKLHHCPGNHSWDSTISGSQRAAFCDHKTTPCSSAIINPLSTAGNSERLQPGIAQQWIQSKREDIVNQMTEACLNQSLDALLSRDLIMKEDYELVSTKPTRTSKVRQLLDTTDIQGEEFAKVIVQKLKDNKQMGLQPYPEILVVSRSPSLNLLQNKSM

## C[C@@H]1[C@H](c2cc3c(Nc4ccc5scnc5c4F)ccnc3s2)CCCN1C
  IC50: < 10 nM
